Measured values published in paper PMC10584170, “Machine learning-based phenotypic imaging to characterise the targetable biology of Plasmodium falciparum male gametocytes for the development of transmission-blocking antimalarials” (PLOS Pathogens, 2023).
Read-outs that look alike come from different tables or passages of the source.

Assays:
HepG2 cells = assay: HepG2 cytotoxicity counter-screen; details: cytotoxic activity against HepG2 cells
[1] = system: P. falciparum male gametocytes; assay: P. falciparum Dual Gamete Formation Assay (PfDGFA), male readout (exflagellation); assay type: cell-based, Plasmodium falciparum NF54; details: for Selectivity Ratio M: HepG2 Tox50 versus male IC50; for Average inhibition male (%) / % inhibition male (individual replicates) R1 / % inhibition male (individual replicates) R3 / % inhibition male (individual replicates) R4 / inhibition at 2 µM: 24h preincubation with gametocytes; for IC50: PfDGFA, 24 h incubation with gametocytes before induction, exflagellation readout, read-out: Male IC50; for HitlevelM: number of replicates with >50% inhibition in the male readout
In short: (§1)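 Two sex-specific readouts come from one well: male exflagellation centres recorded by brightfield video right after activation, and female gametes scored by Cy3-anti-Pfs25 fluorescence after 24 h at 28°C.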

[2] = system: P. falciparum female gametocytes; assay: P. falciparum Dual Gamete Formation Assay (PfDGFA), female readout (Pfs25-positive female gametes); assay type: cell-based, Plasmodium falciparum NF54; details: for Selectivity ratio F: HepG2 Tox50 versus female IC50; for Average inhibition female (%) / % inhibition female (individual replicates) R1 / % inhibition female (individual replicates) R3 / % inhibition female (individual replicates) R4 / inhibition at 2 µM: 24h preincubation with gametocytes; for IC50: PfDGFA, 24 h incubation with gametocytes before induction, female gamete readout, read-out: Female IC50; for HitlevelF: number of replicates with >50% inhibition in the female readout
In short: as §1

[3] = PfDGFA at 2µM, average of replicates

Compound | Tox50 (HepG2 cells) | Selectivity Ratio M [1] | Average inhibition male (%) [1, 3] | % inhibition male (individual replicates) R1 ([1]; PfDGFA at 2µM, replicate R1) | % inhibition male (individual replicates) R3 ([1]; PfDGFA at 2µM, replicate R3) | % inhibition male (individual replicates) R4 ([1]; PfDGFA at 2µM, replicate R4) | IC50 [1] | HitlevelM ([1]; 2µM) | Selectivity ratio F [2] | Average inhibition female (%) [2, 3] | % inhibition female (individual replicates) R1 ([2]; PfDGFA at 2µM, replicate R1) | % inhibition female (individual replicates) R3 ([2]; PfDGFA at 2µM, replicate R3) | % inhibition female (individual replicates) R4 ([2]; PfDGFA at 2µM, replicate R4) | IC50 [2] | HitlevelF ([2]; 2µM) | Average inhibition male (%) ([1]; 2µM, average of replicates) | % inhibition male (individual replicates) R1 ([1]; 2µM, replicate R1) | % inhibition male (individual replicates) R3 ([1]; 2µM, replicate R3) | % inhibition male (individual replicates) R4 ([1]; 2µM, replicate R4) | Average inhibition female (%) ([2]; 2µM, average of replicates) | also measured
CC(Cc1ccc(C(=O)Nc2ccc(CC(C)NCCc3cccc(Cl)c3)cc2)cc1)NCCc1ccc(C(F)(F)F)cc1 (centres unmarked) [TCMDC-139790] | 3.76 µM | 2.39 | 83.5% | 92.2% | 51.0% | 92.9% | 1.58 µM | 4 | 3.01 | 37.4% | 27.8% | 24.4% | 27.0% | 1.25 µM | 1 | – | – | – | – | – | –
CC(Cc1ccc(NC(=O)c2ccc(CNCCCCc3ccccc3)cc2)cc1)NCCc1cccc(Cl)c1.Cl (centres unmarked) [TCMDC-139866] | 3.81 µM | 2.02 | 80.8% | 85.9% | 43.9% | 97.6% | 1.88 µM | 3 | 1.02 | 35.2% | 34.1% | 6.7% | 45.1% | 3.73 µM | 1 | – | – | – | – | – | –
CC(Cc1ccc(OCCCCOc2ccccc2)cc1)NCCC1CCCN1C (centres unmarked) [TCMDC-140017] | 1.62 µM | 2.45 | – | – | – | – | 0.66 µM | – | 1.19 | – | – | – | – | 1.37 µM | – | 99.4% | 96.0% | 99.2% | 102.2% | 62.2% | % inhibition female (individual replicates) R1 ([2]; 2µM, replicate R1): 37.3%; % inhibition female (individual replicates) R3 ([2]; 2µM, replicate R3): 46.8%; % inhibition female (individual replicates) R4 ([2]; 2µM, replicate R4): 81.6%
CN(CCCCN)Cc1ccc(-c2ccc(Cl)cc2)cc1 [TCMDC-140123] | 6.69 µM | 4.36 | 72.2% | 73.4% | 55.2% | 83.6% | 1.53 µM | 4 | 1.81 | 20.6% | 26.7% | 14.8% | 10.1% | 3.7 µM | 0 | – | – | – | – | – | –
COc1cc(-c2nc(C(C)(C)CN)[nH]c2-c2ccncc2)ccc1Br.Cl [TCMDC-140674] | 43.66 µM | 24.67 | – | – | – | – | – | 3 | 27.17 | – | – | – | – | – | 2 | – | – | – | – | – | inhibition at 2 µM ([1]; Plasmodium falciparum, PfDGFA at 2µM, average of replicates, read-out: Average inhibition male (%)): 80.4%; inhibition at 2 µM ([1]; Plasmodium falciparum, PfDGFA at 2µM, replicate R1, read-out: % inhibition male (individual replicates) R1): 38.8%; inhibition at 2 µM ([1]; Plasmodium falciparum, PfDGFA at 2µM, replicate R2, read-out: % inhibition male (individual replicates) R2): 100%; inhibition at 2 µM ([1]; Plasmodium falciparum, PfDGFA at 2µM, replicate R3, read-out: % inhibition male (individual replicates) R3): 83.7%; inhibition at 2 µM ([1]; Plasmodium falciparum, PfDGFA at 2µM, replicate R4, read-out: % inhibition male (individual replicates) R4): 98.9%; IC50 ([1]; Plasmodium falciparum): 1.77 µM; inhibition at 2 µM ([2]; Plasmodium falciparum, PfDGFA at 2µM, average of replicates, read-out: Average inhibition female (%)): 51.9%; inhibition at 2 µM ([2]; Plasmodium falciparum, PfDGFA at 2µM, replicate R1, read-out: % inhibition female (individual replicates) R1): 32.2%; inhibition at 2 µM ([2]; Plasmodium falciparum, PfDGFA at 2µM, replicate R2, read-out: % inhibition female (individual replicates) R2): 85.8%; inhibition at 2 µM ([2]; Plasmodium falciparum, PfDGFA at 2µM, replicate R3, read-out: % inhibition female (individual replicates) R3): 16.6%; inhibition at 2 µM ([2]; Plasmodium falciparum, PfDGFA at 2µM, replicate R4, read-out: % inhibition female (individual replicates) R4): 72.9%; IC50 ([2]; Plasmodium falciparum): 1.61 µM
N=C(N)Nc1nc(-c2ccc(NCc3ccc(CNc4cccc(-c5csc(NC(=N)N)n5)c4)cc3)cc2)cs1 [TCMDC-140699] | 5.85 µM | 7.68 | – | – | – | – | 0.76 µM | – | 2.7 | – | – | – | – | 2.17 µM | – | 99.5% | 99.4% | 98.0% | 98.9% | 56.1% | % inhibition female (individual replicates) R1 ([2]; 2µM, replicate R1): 34.4%; % inhibition female (individual replicates) R3 ([2]; 2µM, replicate R3): 32.5%; % inhibition female (individual replicates) R4 ([2]; 2µM, replicate R4): 82.5%
CN(C)CCCOc1ccc(CN2CCC(c3c[nH]c4ccc(NCC5CCCCC5)cc34)CC2)cc1.O=C(O)C(F)(F)F [TCMDC-140737] | 8.22 µM | 6.13 | – | – | – | – | 1.34 µM | – | 1.66 | – | – | – | – | 4.94 µM | – | 93.4% | 100.1% | 96.2% | 94.6% | 62.2% | % inhibition female (individual replicates) R1 ([2]; 2µM, replicate R1): 56.9%; % inhibition female (individual replicates) R3 ([2]; 2µM, replicate R3): 56.2%; % inhibition female (individual replicates) R4 ([2]; 2µM, replicate R4): 81.1%
CCN(CC)CCN(Cc1ccc(-c2ccc(C(F)(F)F)cc2)cc1)C(=O)Cn1cc(Cc2cnn(C)c2)c(=O)nc1/C=C/c1ccc(F)cc1.O=C(O)C(O)C(O)C(=O)O [TCMDC-140741] | 16.37 µM | 19.3 | – | – | – | – | – | – | 2.29 | – | – | – | – | – | – | – | – | – | – | – | inhibition at 2 µM ([1]; Plasmodium falciparum, 2µM, average of replicates, read-out: Average inhibition male (%)): 90.1%; inhibition at 2 µM ([1]; Plasmodium falciparum, 2µM, replicate R1, read-out: % inhibition male (individual replicates) R1): 92.2%; inhibition at 2 µM ([1]; Plasmodium falciparum, 2µM, replicate R2, read-out: % inhibition male (individual replicates) R2): 91.9%; inhibition at 2 µM ([1]; Plasmodium falciparum, 2µM, replicate R3, read-out: % inhibition male (individual replicates) R3): 76%; inhibition at 2 µM ([1]; Plasmodium falciparum, 2µM, replicate R4, read-out: % inhibition male (individual replicates) R4): 100%; IC50 ([1]; Plasmodium falciparum): 0.85 µM; inhibition at 2 µM ([2]; Plasmodium falciparum, 2µM, average of replicates, read-out: Average inhibition female (%)): 44.8%; inhibition at 2 µM ([2]; Plasmodium falciparum, 2µM, replicate R1, read-out: % inhibition female (individual replicates) R1): 41.2%; inhibition at 2 µM ([2]; Plasmodium falciparum, 2µM, replicate R2, read-out: % inhibition female (individual replicates) R2): 41.2%; inhibition at 2 µM ([2]; Plasmodium falciparum, 2µM, replicate R3, read-out: % inhibition female (individual replicates) R3): 34.9%; inhibition at 2 µM ([2]; Plasmodium falciparum, 2µM, replicate R4, read-out: % inhibition female (individual replicates) R4): 61.9%; IC50 ([2]; Plasmodium falciparum): 7.16 µM
